Reference: patent US20120058499A1, “Bioluminescent Detection of Protease Activity” (priority 2010, published 2012)

Assays:
Format in all cases: biochemical
Ataxin3 = Ataxin3 (Homo sapiens, UniProt P54252); assay: Platform comparison of DUB substrates, signal to background; details: DUB 10 nM; signal at 30 minutes; Ub-LUC 100 nM, DUB-Glo substrate 20 μM, Ub-AMC/Ub-rho 250 nM
Description: (§1) For Ub-AMC and Ub-Rhodamine110, all enzymes were diluted into 50 mM Tris, pH 8.0, 5 mM DTT, 0.05% CHAPS to a final concentration of 10 nM. […] Either Ub-AMC or Ub-Rhodamine110 (final reaction concentration equal to 250 nM) were diluted into 50 mM Tris, pH 8.0, 5 mM DTT, 0.05% (w/v) CHAPS. […] For Ub-Rhodamine110, fluorescence was monitored with filters corresponding to excitation at 485 nm and emission at 531 nm.

UCHL5 = biological target: T1, UCHL5 (Homo sapiens, UniProt Q9Y5K5); assay: as above; details: DUB 10 nM; signal at 30 minutes; Ub-LUC 100 nM, DUB-Glo substrate 20 μM, Ub-AMC/Ub-rho 250 nM
T1 sequence (Q9Y5K5 1-329): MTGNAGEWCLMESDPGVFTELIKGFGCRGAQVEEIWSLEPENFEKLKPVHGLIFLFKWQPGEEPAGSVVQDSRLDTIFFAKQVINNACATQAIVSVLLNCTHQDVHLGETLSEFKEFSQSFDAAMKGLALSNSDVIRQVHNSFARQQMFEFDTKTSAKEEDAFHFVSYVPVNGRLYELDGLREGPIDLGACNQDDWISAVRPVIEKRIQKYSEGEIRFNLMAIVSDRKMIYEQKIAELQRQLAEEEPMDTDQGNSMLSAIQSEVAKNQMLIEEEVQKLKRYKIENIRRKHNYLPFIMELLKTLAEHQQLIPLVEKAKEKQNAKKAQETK
Description: as §1

Otub2 = biological target: T2, Otub2 (Homo sapiens, UniProt Q96DC9); assay: as above; details: DUB 10 nM; signal at 30 minutes; Ub-LUC 100 nM, DUB-Glo substrate 20 μM, Ub-AMC/Ub-rho 250 nM
T2 sequence (Q96DC9 1-234): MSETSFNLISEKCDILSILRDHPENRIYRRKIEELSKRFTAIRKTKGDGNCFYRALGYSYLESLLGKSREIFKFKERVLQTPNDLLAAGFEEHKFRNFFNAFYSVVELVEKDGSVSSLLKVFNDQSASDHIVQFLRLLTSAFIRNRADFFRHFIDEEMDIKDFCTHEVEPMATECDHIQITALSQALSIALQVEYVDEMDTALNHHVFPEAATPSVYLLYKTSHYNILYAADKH
Description: as §1

USP20 = USP20 (Homo sapiens, UniProt Q9Y2K6); assay: as above; details: DUB 10 nM; signal at 30 minutes; Ub-LUC 100 nM, DUB-Glo substrate 20 μM, Ub-AMC/Ub-rho 250 nM
USP20, sequence (Q9Y2K6 whole entry, species assumed): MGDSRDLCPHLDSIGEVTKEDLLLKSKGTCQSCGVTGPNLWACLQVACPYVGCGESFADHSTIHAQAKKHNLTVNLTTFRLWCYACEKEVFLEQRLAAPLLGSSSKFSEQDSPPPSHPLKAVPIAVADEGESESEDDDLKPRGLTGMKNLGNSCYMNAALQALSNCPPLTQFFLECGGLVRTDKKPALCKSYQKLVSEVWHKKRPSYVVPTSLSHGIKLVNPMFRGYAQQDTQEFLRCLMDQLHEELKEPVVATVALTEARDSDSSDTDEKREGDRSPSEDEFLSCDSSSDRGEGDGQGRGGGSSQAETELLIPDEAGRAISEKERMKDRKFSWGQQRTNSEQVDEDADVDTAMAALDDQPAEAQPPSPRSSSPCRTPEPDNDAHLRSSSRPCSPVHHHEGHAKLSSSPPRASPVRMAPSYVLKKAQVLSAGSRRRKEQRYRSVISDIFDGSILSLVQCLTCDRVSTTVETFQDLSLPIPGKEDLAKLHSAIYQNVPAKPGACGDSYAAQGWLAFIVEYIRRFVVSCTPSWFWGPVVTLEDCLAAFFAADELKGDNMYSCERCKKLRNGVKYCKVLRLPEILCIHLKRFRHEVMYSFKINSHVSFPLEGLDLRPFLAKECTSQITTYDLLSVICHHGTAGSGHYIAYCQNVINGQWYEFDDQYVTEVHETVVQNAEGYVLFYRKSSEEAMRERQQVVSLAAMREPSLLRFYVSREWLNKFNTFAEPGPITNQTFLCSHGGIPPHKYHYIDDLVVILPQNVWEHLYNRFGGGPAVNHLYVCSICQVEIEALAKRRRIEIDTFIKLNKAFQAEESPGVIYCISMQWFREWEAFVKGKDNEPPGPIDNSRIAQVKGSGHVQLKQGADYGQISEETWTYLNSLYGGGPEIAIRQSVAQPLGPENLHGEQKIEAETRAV
Description: as §1

UCHL3 = biological target: T3, UCHL3 (Homo sapiens, UniProt P15374); assay: Isopeptidase cleavage of substrates (DUB-Glo luminescence / fluorescence), S/B; details: for signal to background (S/B) ratio: 30 minutes
T3 sequence (P15374 1-230): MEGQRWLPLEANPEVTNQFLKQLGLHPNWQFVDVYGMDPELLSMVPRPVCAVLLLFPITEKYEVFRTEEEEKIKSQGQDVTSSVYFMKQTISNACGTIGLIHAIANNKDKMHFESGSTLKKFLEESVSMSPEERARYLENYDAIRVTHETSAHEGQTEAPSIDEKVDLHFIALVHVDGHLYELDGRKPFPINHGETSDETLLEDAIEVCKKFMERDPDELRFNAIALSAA
Description: The Ub-amino-luciferin substrate was compared to the Z-Arg-Leu-Arg-Gly-Gly (SEQ ID NO: 1)-amino-luciferin substrate (Promega DUB-Glo™ substrate) to determine the limit of detection of the activities of four different isopeptidases (UCHL3, USP2core, USP7, and USP8). For all enzymes, these two substrates were tested in parallel using the DUB-Glo™ assay system (Promega) according to the manufacturer's instructions. All enzymes were diluted into 50 mM HEPES, pH 7.5, 10 mM DTT, 0.1% Prionex (Sigma-Aldrich). For testing Z-Arg-Leu-Arg-Gly-Gly (SEQ ID NO: 1)-amino-luciferin, final isopeptidase concentrations were as follows: UCHL3 equal to approximately 0.35 to 50 nM; USP2core equal to approximately 10 to 500 nM, USP7 equal to approximately 0.1 to 50 nM, and USP8 equal to approximately 20 to 500 nM. For testing Ub-amino-luciferin, final isopeptidase concentrations were as follows: UCHL3 equal to approximately 0.05 to 50 pM; USP2core, USP7, and USP8 equal to approximately 0.5 to 500 pM. Reactions were assembled through addition of 50 μl of diluted enzyme and 50 μl of DUB-Glo™ reaction mixture supplemented with either Z-Arg-Leu-Arg-Gly-Gly (SEQ ID NO: 1)-amino-luciferin (final concentration of 20 μM) or Ub-amino-luciferin (final concentration of 100 nM). The signal in relative luminescence units (RLUs) was measured at 30 minutes from reaction assembly on an Envision multi-label plate reader (Perkin Elmer). The signal to background ratio (S/B) was calculated as (maximum signal−signal in absence of enzyme)/(signal in absence of enzyme).
The Ub-amino-luciferin (Ub-LUC) substrate was compared to the Ub-AMC substrate (FIG. 3) and the Ub-Rhodamine110 (Ub-Rho) substrate (FIG. 4), to determine the limit of detection for the activities of four different isopeptidases (UCHL3, USP2core, USP7, and USP8). All enzymes were diluted into 50 mM Tris, pH 8.0, 5 mM DTT, 0.05% (w/v) CHAPS. Final isopeptidase concentrations were as follows: UCHL3 equal to approximately 2 pM to 40 pM; USP2core, USP7, and USP8 were equal to approximately 10 to 1000 nM. Either Ub-AMC or Ub-Rhodamine110 (final concentration equal to 250 nM) were diluted into 50 mM Tris, pH 8.0, 5 mM DTT, 0.05% (w/v) CHAPS. Reactions were assembled through the addition of 50 μl diluted isopeptidase to 50 μl of either Ub-AMC or Ub-Rhodamine110, and the signal in relative fluorescence units (RFUs) was measured at 30 minutes on an Envision multi-label plate reader (Perkin Elmer). For Ub-AMC, fluorescence was monitored with filters corresponding to excitation at 340 nm and emission at 460 nm. For Ub-Rhodamine110, fluorescence was monitored with filters corresponding to excitation at 485 nm and emission at 531 nm. The signal to background (S/B) was calculated as (maximum signal−signal in absence of enzyme)/(signal in absence of enzyme).

Ataxin3, sequence (P54252 whole entry, species assumed): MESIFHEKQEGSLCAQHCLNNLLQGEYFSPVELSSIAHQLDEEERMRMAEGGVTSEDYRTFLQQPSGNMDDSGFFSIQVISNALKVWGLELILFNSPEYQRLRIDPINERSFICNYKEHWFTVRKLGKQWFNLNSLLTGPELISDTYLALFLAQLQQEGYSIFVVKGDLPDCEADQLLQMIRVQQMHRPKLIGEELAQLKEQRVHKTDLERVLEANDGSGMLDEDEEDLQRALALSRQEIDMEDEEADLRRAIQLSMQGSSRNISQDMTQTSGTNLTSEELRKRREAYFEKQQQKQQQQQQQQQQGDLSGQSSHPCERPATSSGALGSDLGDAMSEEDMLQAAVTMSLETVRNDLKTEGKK

Row | Signal to Background value (UCHL5) | Signal to Background value (Otub2) | Signal to Background value (USP20) | signal to background (S/B) ratio (UCHL3; substrate 20 μM, UCHL3 40 nM) | fold greater S/B compared to Z-RLRGG-amino-luciferin (UCHL3; UCHL3 activity) | limits of detection, fold lower than with Z-RLRGG-amino-luciferin (UCHL3; linear range of UCHL3-dependent S/B) | signal to background (S/B) ratio (UCHL3; substrate 100 nM, UCHL3 32 pM) | Substance | Signal to Background value (Ataxin3)
1 | 1.4 | 1.3 | 2.8 | approximately 1000 | – | – | – | Z-Arg-Leu-Arg-Gly-Gly (SEQ ID NO: 1)-amino-luciferin [DUB-glo ™] | 1.3
2 | 1700 | 980 | 473 | – | about 1000 fold | approximately 1000 fold | 1000 | Ub(1-76)-aminoluciferin [Ub-LUC] | 4.0
